Data reported in US9127018B2, “Solid forms of ortataxel” (Indena S.p.A., priority 2008, dated 2015).

Assay: physical and chemical stability of the solid form
Assay type: physicochemical
Settings: solid form prepared with traces of an organic acid (citric acid); storage conditions not given

## CC(=O)O[C@H]1C(=O)[C@@]2(C)[C@H]([C@H](OC(=O)c3ccccc3)[C@]34OC(=O)O[C@H]3[C@H](OC(=O)[C@H](O)[C@H](CC(C)C)NC(=O)OC(C)(C)C)C(C)=C1C4(C)C)[C@]1(OC(C)=O)CO[C@@H]1C[C@@H]2O [Form A, 13-(N-Boc-β-isobutylserinyl)-14-β-hydroxybaccatin III 1, 14-carbonate]
  chemical and physical stability: at least 36 months
